# Assay results taken from patent US8044198B2, “Sirtuin modulating compounds” (Sirtris Pharmaceuticals, Inc., priority 2005, dated 2011).
# Molecular target: T1, SIRT1 (Homo sapiens, UniProt Q96EB6)
# T1 sequence (Q96EB6 1-747): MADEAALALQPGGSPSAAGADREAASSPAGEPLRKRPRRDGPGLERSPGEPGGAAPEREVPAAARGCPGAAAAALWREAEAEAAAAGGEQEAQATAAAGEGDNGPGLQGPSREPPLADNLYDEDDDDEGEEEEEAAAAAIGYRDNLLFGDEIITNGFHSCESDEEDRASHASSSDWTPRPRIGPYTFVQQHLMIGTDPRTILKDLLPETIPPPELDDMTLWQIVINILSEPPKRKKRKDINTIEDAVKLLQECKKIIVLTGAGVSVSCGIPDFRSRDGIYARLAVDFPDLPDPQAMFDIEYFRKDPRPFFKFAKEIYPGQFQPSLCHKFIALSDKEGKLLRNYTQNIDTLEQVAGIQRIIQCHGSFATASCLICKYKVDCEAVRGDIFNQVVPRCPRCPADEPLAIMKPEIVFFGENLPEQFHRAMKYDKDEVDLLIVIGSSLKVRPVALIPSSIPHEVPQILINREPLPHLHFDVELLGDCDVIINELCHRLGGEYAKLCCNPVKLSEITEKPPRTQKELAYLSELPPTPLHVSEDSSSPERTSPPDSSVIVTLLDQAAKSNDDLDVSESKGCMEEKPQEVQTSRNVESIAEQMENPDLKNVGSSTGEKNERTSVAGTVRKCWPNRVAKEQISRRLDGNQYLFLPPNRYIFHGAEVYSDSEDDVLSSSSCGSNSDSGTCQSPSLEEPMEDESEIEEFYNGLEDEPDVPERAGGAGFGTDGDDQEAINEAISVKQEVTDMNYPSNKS
# Test: SIRT1 mass spectrometry (MS) based deacetylation assay; as to FOLD ACT. MS: test concentration or dose not given here
# Type: biochemical
# Details: Sirt1 activators; for FOLD ACT. MS: fold activation as determined by MS; for EC50: mass spectrometry assay, read-out: ED50 MS ASSAY
Structure (SMILES),FOLD ACT. MS,EC50
COc1cccc(C(=O)Nc2ccccc2-c2nc3cccnc3[nH]2)c1 [Compound 532],B (B (Fold Activation <250%)),< 5 µM
O=C(Nc1ccccc1-c1nc2cccnc2[nH]1)c1ccccc1 [Compound 533],B (B (Fold Activation <250%)),< 5 µM
CN(C)c1ccc(C(=O)Nc2ccccc2-c2nc3cccnc3[nH]2)cc1 [Compound 534],B (B (Fold Activation <250%)),< 5 µM
COc1cc(C(=O)Nc2ccccc2-c2nc3cccnc3[nH]2)ccc1CN1CCCC1 [Compound 535],A (A (Fold activation >250%)),5 to 50 µM
COc1cc(C(=O)Nc2ccccc2-c2nc3cccnc3[nH]2)ccc1CN1CCCCC1 [Compound 536],A (A (Fold activation >250%)),5 to 50 µM
COc1cc(C(=O)Nc2ccccc2-c2nc3cccnc3[nH]2)ccc1CN1CCOCC1 [Compound 537],A (A (Fold activation >250%)),< 5 µM
COc1cc(C(=O)Nc2ccccc2-c2nc3cccnc3[nH]2)ccc1CN1CCN(C)CC1 [Compound 539],A (A (Fold activation >250%)),< 5 µM
COc1cc(C(=O)Nc2ccccc2-c2nc3cccnc3[nH]2)ccc1CN(C)C [Compound 540],A (A (Fold activation >250%)),5 to 50 µM
COc1cc(C(=O)Nc2ccccc2-c2cn3cccnc3n2)ccc1CN1CCOCC1 [Compound 542],A (A (Fold activation >250%)),5 to 50 µM
COc1ccc(C(=O)Nc2ccccc2-c2cn3c(n2)CCCC3)cc1OC [Compound 545],B (B (Fold Activation <250%)),5 to 50 µM
COc1cc(C(=O)Nc2ccccc2-c2cn3c(n2)CCCC3)cc(OC)c1OC [Compound 546],B (B (Fold Activation <250%)),5 to 50 µM
O=C(Nc1ccccc1-c1cn2c(n1)CCCC2)c1cnc2ccccc2n1 [Compound 548],B (B (Fold Activation <250%)),< 5 µM
O=C(Nc1ccccc1-c1nc2ccccc2[nH]1)c1ccc2ccccc2n1 [Compound 556],A (A (Fold activation >250%)),< 5 µM
COc1ccc(C(=O)Nc2ccc(-c3nc4ccncc4o3)s2)c(OC)c1 [Compound 561],B (B (Fold Activation <250%)),< 5 µM
COc1cc(OC)cc(C(=O)Nc2ccc(-c3nc4ccncc4o3)s2)c1 [Compound 562],B (B (Fold Activation <250%)),< 5 µM
COc1cc(C(=O)Nc2ccc(-c3nc4ccncc4o3)s2)cc(OC)c1OC [Compound 563],B (B (Fold Activation <250%)),5 to 50 µM
CS(=O)(=O)Nc1cccc(C(=O)Nc2cc(-c3nc4ncccc4o3)ccn2)c1 [Compound 566],B (B (Fold Activation <250%)),5 to 50 µM

Structure (SMILES),FOLD ACT. MS,EC50
COc1cc(C(=O)Nc2cc(-c3nc4ncccc4o3)ccn2)ccc1CN1CCCCC1 [Compound 571],B (B (Fold Activation <250%)),5 to 50 µM
COc1cc(C(=O)Nc2cc(-c3nc4ncccc4o3)ccn2)ccc1CN1CCCC1 [Compound 572],B (B (Fold Activation <250%)),51 to 100 µM
CCn1ccc(C(=O)Nc2ccccc2-c2nc3ncccc3o2)n1 [Compound 581],B (B (Fold Activation <250%)),5 to 50 µM
COc1cc(C(=O)Nc2ccccc2-c2nc3ncccc3o2)ccc1CN1CCCCC1 [Compound 585],B (B (Fold Activation <250%)),5 to 50 µM
COc1cc(C(=O)Nc2ccccc2-c2nc3ccccc3[nH]2)ccc1CN1CCCC1 [Compound 587],B (B (Fold Activation <250%)),< 5 µM
COc1cc(C(=O)Nc2ccccc2-c2nc3cc(CN4CCNCC4)cnc3s2)cc(OC)c1OC [Compound 588],A (A (Fold activation >250%)),5 to 50 µM
COc1cc(OC)cc(C(=O)Nc2ccccc2-c2nc3cc(CN4CCNCC4)cnc3s2)c1 [Compound 589],A (A (Fold activation >250%)),< 5 µM
O=C(Nc1ccccc1-c1nc2ccncc2s1)c1cc(C(F)(F)F)ccc1C(F)(F)F [Compound 596],–,< 5 µM
COc1ccc(OC(=O)Nc2ccccc2-c2nc3ccncc3s2)cc1 [Compound 597],–,< 5 µM
COc1ccc(NC(=S)Nc2cccc(-c3nc4ccncc4s3)c2)c(OC)c1 [Compound 599],–,< 5 µM
COc1ccc(NC(=S)Nc2cccc(-c3nc4ccncc4s3)c2)cc1OC [Compound 600],–,> 150 µM
COc1cc(C(=O)Nc2ccccc2-c2nc3ncccc3o2)ccc1CN1CCCC1 [Compound 629],A (A (Fold activation >250%)),5 to 50 µM
COc1cc(C(=O)Nc2ccccc2-c2nc3ncccc3o2)ccc1CN(C)C [Compound 630],A (A (Fold activation >250%)),5 to 50 µM
COc1cc(C(=O)Nc2ccccc2-c2nc3ncccc3o2)ccc1CN1CCOCC1 [Compound 631],B (B (Fold Activation <250%)),< 5 µM
COc1cc(C(=O)Nc2ccccc2-c2nc3ncccc3o2)ccc1CN1CCN(C)CC1 [Compound 632],A (A (Fold activation >250%)),5 to 50 µM
N=C(Nc1ccc(Cl)cc1)Nc1cc(-c2nc3ncccc3o2)ccn1 [Compound 634],B (B (Fold Activation <250%)),> 150 µM

# Second part, the compound after the results:
FOLD ACT. MS,EC50,Structure (SMILES)
A (A (Fold activation >250%)),5 to 50 µM,COc1cc(C(=O)Nc2ccccc2-c2nc3cccnc3[nH]2)ccc1CN1CCNCC1 [Compound 538]
B (B (Fold Activation <250%)),5 to 50 µM,COc1cc(C(=O)Nc2ccccc2-c2cn3ccccc3n2)ccc1CN1CCOCC1 [Compound 541]
A (A (Fold activation >250%)),< 5 µM,O=C(Nc1ccccc1-c1cn2c(CN3CCNCC3)csc2n1)c1cnccn1 [Compound 543]
A (A (Fold activation >250%)),5 to 50 µM,O=C(Nc1ccccc1-c1cn2c(CN3CCNCC3)csc2n1)c1cc2ccccc2s1 [Compound 544]
B (B (Fold Activation <250%)),< 5 µM,O=C(Nc1ccccc1-c1cn2c(n1)CCCC2)c1ccc2ccccc2n1 [Compound 547]
A (A (Fold activation >250%)),< 5 µM,COc1cc(C(=O)Nc2ccccc2-c2nc3ccccc3[nH]2)ccc1CN1CCNCC1 [Compound 558]
B (B (Fold Activation <250%)),5 to 50 µM,O=C(Nc1ccccc1-c1nc2cc(CN3CCNCC3)cnc2s1)c1ccc2c(c1)OCO2 [Compound 590]
A (A (Fold activation >250%)),< 5 µM,Cc1ccc(C(=O)Nc2ccccc2-c2nc3cc(CN4CCNCC4)cnc3s2)cc1C [Compound 591]
B (B (Fold Activation <250%)),< 5 µM,N#Cc1cccc(C(=O)Nc2ccccc2-c2nc3cc(CN4CCNCC4)cnc3s2)c1 [Compound 592]
A (A (Fold activation >250%)),< 5 µM,CN(C)c1cccc(C(=O)Nc2ccccc2-c2nc3cc(CN4CCNCC4)cnc3s2)c1 [Compound 593]
B (B (Fold Activation <250%)),5 to 50 µM,O=C(Nc1ccccc1-c1nc2cc(CN3CCNCC3)cnc2s1)c1ccc(F)c(F)c1 [Compound 594]
A (A (Fold activation >250%)),< 5 µM,O=C(Nc1ccccc1-c1cn2c(CN3CCOCC3)csc2n1)c1cnc2ccccc2n1 [Compound 617]
B (B (Fold Activation <250%)),< 5 µM,O=C(Nc1ccccc1-c1cn2c(CN3CCCCC3)csc2n1)c1cnc2ccccc2n1 [Compound 618]
B (B (Fold Activation <250%)),< 5 µM,O=C(Nc1ccccc1-c1cn2c(CN3CCCC3)csc2n1)c1cnc2ccccc2n1 [Compound 619]
B (B (Fold Activation <250%)),< 5 µM,COc1cc(C(=O)Nc2ccccc2-c2cn3c(CN4CCCC4)csc3n2)cc(OC)c1OC [Compound 620]
A (A (Fold activation >250%)),< 5 µM,O=C(Nc1ncccc1-c1cn2c(CN3CCOCC3)csc2n1)c1cnc2ccccc2n1 [Compound 621]
A (A (Fold activation >250%)),< 5 µM,O=C(Nc1ccccc1-c1nc2cc(CN3CCNCC3)cnc2s1)c1cnc2ccccc2n1 [Compound 622]
A (A (Fold activation >250%)),< 5 µM,O=C(Nc1ccccc1-c1cn2c(CN3CCNCC3)csc2n1)c1cc2ccccc2o1 [Compound 624]
A (A (Fold activation >250%)),< 5 µM,O=C(Nc1ccccc1-c1cn2c(CN3CCNCC3)csc2n1)c1cc(-c2ccccc2)ncn1 [Compound 625]
B (B (Fold Activation <250%)),< 5 µM,O=C(Nc1ccccc1-c1cn2c(CN3CCN(Cc4ccccc4)CC3=O)csc2n1)c1cnc2ccccc2n1 [Compound 628]
